Like-named read-outs stand apart in the source and are kept apart here.

The nature of series [1]: Loss of trace elements during 24 h CRRT treatment (FIG. 5A-5B). Particulars: patients with CRRT (acute dialysis treatment).
A short description of series [2]: Trace element concentrations in effluent of hemodialysis patients (ICP-MS). The settings on record: effluent from HD patients at the end of dialysis session.
Procedure: (§1) Trace element concentrations have been analyzed in effluent obtained from hemodialysis (HD) patients at the end of their dialysis session.
(§2) In the study participated 47 hemodialysis patients. […] All patients received dialysis 3-5 h, 3-4 times per week. Whole blood and plasma samples for trace element analysis were obtained pre- and post-midweek dialysis treatment in 6 ml trace element-free EDTA tubes (BD Vaccutainer®, Stockholm, Sweden). In addition effluent samples were taken post-treatment in 50 ml trace element-free tubes.
(§3) Analysis of all trace elements was performed by inductively coupled plasma-mass spectrometry (ICP-MS; Thermo X7, Thermo Elemental, Winsford, UK). For plasma and blood a sample volume of 250 μL was diluted 10 times with an alkaline solution according to Bárány et al. The effluent was analysed in acidic condition, i.e. concentrated nitric acid (HNO3) was added to the samples to a final concentration of 2%. Using the dilute solution or 2% HNO3 as a carrier/rinsing fluid, the samples were introduced in a segment-flow mode.
Series [3] can be described thus: Trace element analysis in plasma and whole blood of HD patients and healthy controls (ICP-MS). The settings on record: for P2 plasma sample post-dialysis ± SEM / P1 plasma sample pre-dialysis ± SEM / B2 whole blood sample post-dialysis ± SEM / B1 whole blood sample pre-dialysis ± SEM: all HD patients; for P control ± SEM / B control ± SEM: healthy controls; for B2 whole blood sample post-dialysis ± SEM / B1 whole blood sample pre-dialysis ± SEM / B control ± SEM: whole blood; for increase of concentration during dialysis: plasma and whole blood, HD patients (FIG. 2).
Procedure: (§4) In the study participated 47 hemodialysis patients. These 47 hemodialysis patients (34 female and 13 male), were divided into 30 non-diabetic and 17 with diabetes mellitus, with an average age of 67 (Table 1). All patients received dialysis 3-5 h, 3-4 times per week. Whole blood and plasma samples for trace element analysis were obtained pre- and post-midweek dialysis treatment in 6 ml trace element-free EDTA tubes (BD Vaccutainer®, Stockholm, Sweden). […] In addition, the same samples were taken at one occasion from a healthy control group. The control group included 51 persons (20 female and 31 male), with an average age of 22.
as §3

The conditions of series [4]: human, in vivo.
Procedure: as §4, §3
The conditions of series [5]: human, in vivo. This is another data set of the same source.
Procedure: as §1, §2, §3
The conditions of series [6]: in vivo.
The conditions of series [7]: in vivo. This is another data set of the same source.
The nature of series [8]: Loss of trace elements during hemodialysis (HD) treatment (FIG. 5C-5E). The settings on record: HD patients (chronic dialysis treatment), 4 hours of HD.

Turning to `[Cr]` [Chromium], the “actual loss during 24 hours of CRRT” value in series [1] is given as “significant loss”. For the same compound, the “Effluent concentration ± SD” value in series [2] was determined as 0.0043 ± 0.008 µM. In series [3] (plasma), the “P2 plasma sample post-dialysis ± SEM” value is 5.2 ± 0.6 µg/L, the “P1 plasma sample pre-dialysis ± SEM” value stood at 3.3 ± 0.3 µg/L and the “P control ± SEM” value is 0.3 ± 0.02 µg/L. In series [3] (plasma, listed as Cr), the “P1 plasma sample pre-dialysis ± SEM” value turned out to be 3.3 ± 0.3 µg/L and the “P control ± SEM” value stood at 0.3 ± 0.02 µg/L. Besides, in series [3], the “B2 whole blood sample post-dialysis ± SEM” value came out at 3.4 ± 0.4 µg/L, the “B1 whole blood sample pre-dialysis ± SEM” value stood at 2.1 ± 0.2 µg/L, the “B control ± SEM” value was 0.3 ± 0.02 µg/L and the “increase of concentration during dialysis” value is listed as “up to 60%”. Besides, the plasma concentration post-dialysis in series [3] (diabetic HD patients) is 2.5 ± 0.4 ng/mL. In series [3] (non-diabetic HD patients), this compound yielded a plasma concentration post-dialysis of 3.8 ± 0.4 ng/mL.
For the compound `[Cu]` [Copper], in series [4], the “B1 whole blood sample pre-dialysis ± SEM” value was 855 ± 18 µg/L, the “B2 whole blood sample post-dialysis ± SEM” value came to 882 ± 17 µg/L, the “B control ± SEM” value was 861 ± 27 µg/L and the “P1 plasma sample pre-dialysis ± SEM” value is 1113 ± 33 µg/L. In addition, in series [4], the “P2 plasma sample post-dialysis ± SEM” value was determined as 1178 ± 29 µg/L, the “increase of concentration during dialysis” value was approximately 4% and the plasma concentration came out at 1173 ± 56 ng/mL. Also, the “Effluent concentration ± SD” value in series [5] came to 0.026 ± 0.015 µM. The “actual loss / removal during HD treatment” value in series [6] is listed as “removal of those trace elements in a majority of the patients”. In addition, the “actual loss during 24 hours of CRRT” value in series [7] is listed as “significant loss”.
Take `[Mn+2]` [Manganese]: the “actual loss / removal during HD treatment” value in series [8] is given as “no manganese removal at all but rather an uptake”. Moreover, the “actual loss during 24 hours of CRRT” value in series [1] is recorded as “significant loss”. In addition, the “Effluent concentration ± SD” value in series [2] amounted to 0.005 ± 0.005 µM. In series [3] (plasma), the “P2 plasma sample post-dialysis ± SEM” value is 3.4 ± 0.9 µg/L, the “P1 plasma sample pre-dialysis ± SEM” value was 0.8 ± 0.03 µg/L and the “P control ± SEM” value was determined as 0.7 ± 0.02 µg/L. Also, in series [3], the “B2 whole blood sample post-dialysis ± SEM” value is 19.3 ± 1.4 µg/L, the “B1 whole blood sample pre-dialysis ± SEM” value came out at 17 ± 1.3 µg/L and the “B control ± SEM” value was 9.2 ± 0.4 µg/L. Also, in series [3] (listed as Mn), the “B1 whole blood sample pre-dialysis ± SEM” value is 17.0 ± 1.1 µg/L and the “B control ± SEM” value was 9.2 ± 0.4 µg/L. In series [3] (diabetic HD patients), the blood concentration post-dialysis came to 20 ± 2.7 ng/mL and the blood concentration pre-dialysis turned out to be 17 ± 2.1 ng/mL. In series [3] (non-diabetic HD patients), this compound yielded a blood concentration post-dialysis of 19 ± 1.4 ng/mL and a blood concentration pre-dialysis of 17 ± 1.3 ng/mL.
Consider `[Mo]` [Molybdenum], for which, in series [4], the “B1 whole blood sample pre-dialysis ± SEM” value stood at 2.0 ± 0.2 µg/L, the “B2 whole blood sample post-dialysis ± SEM” value is 1.0 ± 0.1 µg/L, the “B control ± SEM” value was 0.6 ± 0.1 µg/L and the “P1 plasma sample pre-dialysis ± SEM” value is 2.6 ± 0.2 µg/L. Also, in series [4], the “P2 plasma sample post-dialysis ± SEM” value was 1.3 ± 0.1 µg/L, the “P control ± SEM” value came to 0.8 ± 0.1 µg/L, the “decrease of concentration during dialysis” value is approximately 50% and the plasma concentration post-dialysis came out at 1.2 ± 0.2 ng/mL. For the same compound, in series [4], the plasma concentration pre-dialysis was 3.1 ± 0.4 ng/mL and the “reduction of plasma concentration during dialysis” value came to 50%. Also, the “Effluent concentration ± SD” value in series [5] is 0.003 ± 0.002 µM. Also, the “actual loss during 24 hours of CRRT” value in series [7] was “significant loss”.
`[Rb]` [Rubidium]: in series [4], the “B1 whole blood sample pre-dialysis ± SEM” value came to 972 ± 30 µg/L, the “B2 whole blood sample post-dialysis ± SEM” value amounted to 974 ± 30 µg/L, the “B control ± SEM” value came out at 1966 ± 51 µg/L and the “P1 plasma sample pre-dialysis ± SEM” value was 187 ± 5 µg/L. Moreover, in series [4], the “P2 plasma sample post-dialysis ± SEM” value came out at 150 ± 4 µg/L, the “P control ± SEM” value came out at 271 ± 5 µg/L and the “decrease of plasma concentration during dialysis” value is approximately 20%. The “Effluent concentration ± SD” value in series [5] amounted to 0.31 ± 0.17 µM. Besides, the “actual loss / removal during HD treatment” value in series [6] was “significant removal of rubidium in a majority of the patients”. In addition, the “actual loss during 24 hours of CRRT” value in series [7] was “large loss”.
Regarding `[Se]` [Selenium], in series [4] (both), the “B1 whole blood sample pre-dialysis ± SEM” value stood at 66 ± 2 µg/L, the “B2 whole blood sample post-dialysis ± SEM” value was 68 ± 2 µg/L, the “B control ± SEM” value worked out at 102 ± 3 µg/L and the “P1 plasma sample pre-dialysis ± SEM” value was found to be 53 ± 2 µg/L. In series [4] (both), the “P2 plasma sample post-dialysis ± SEM” value stood at 55 ± 2 µg/L and the “P control ± SEM” value was determined as 81 ± 1.9 µg/L. The “Effluent concentration ± SD” value in series [5] (both) is 0.01 ± 0.005 µM. For the same compound, the “actual loss / removal during HD treatment” value in series [6] is “significant removal of selenium in most patients”. Moreover, in series [7], the “actual loss during 24 hours of CRRT” value is given as “significant loss”.
Cobalt: in series [1], the “actual loss during 24 hours of CRRT” value is given as “significant loss”. Moreover, the “Effluent concentration ± SD” value in series [2] came out at 0.0015 ± 0.002 µM. For the same compound, in series [3] (plasma), the “P2 plasma sample post-dialysis ± SEM” value came out at 0.6 ± 0.1 µg/L, the “P1 plasma sample pre-dialysis ± SEM” value worked out at 0.6 ± 0.03 µg/L and the “P control ± SEM” value was 0.4 ± 0.02 µg/L. Moreover, in series [3] (plasma, listed as Co), the “P1 plasma sample pre-dialysis ± SEM” value was 0.6 ± 0.03 µg/L and the “P control ± SEM” value worked out at 0.4 ± 0.02 µg/L. Also, in series [3], the “B2 whole blood sample post-dialysis ± SEM” value was found to be 0.5 ± 0.03 µg/L, the “B1 whole blood sample pre-dialysis ± SEM” value is 0.5 ± 0.02 µg/L and the “B control ± SEM” value came out at 0.3 ± 0.01 µg/L. Moreover, the “increase in plasma concentration during dialysis” value in series [3] (plasma, diabetic and non-diabetic HD patients) is listed as approximately 15%.
In the case of Zinc, the “actual loss / removal during HD treatment” value in series [8] was “removal of those trace elements in a majority of the patients”. In series [1], the “actual loss during 24 hours of CRRT” value is on record as “some subjects show a uptake of zinc (negative loss) while others show loss of zinc”. The “Effluent concentration ± SD” value in series [2] is 0.017 ± 0.01 µM. Further, in series [3] (plasma), the “P2 plasma sample post-dialysis ± SEM” value came to 685 ± 17 µg/L, the “P1 plasma sample pre-dialysis ± SEM” value was determined as 644 ± 13 µg/L and the “P control ± SEM” value came out at 719 ± 17 µg/L. Further, in series [3], the “B2 whole blood sample post-dialysis ± SEM” value was found to be 5842 ± 131 µg/L, the “B1 whole blood sample pre-dialysis ± SEM” value came to 5610 ± 138 µg/L, the “B control ± SEM” value was 5189 ± 124 µg/L and the “increase of concentration during dialysis” value is approximately 5%. Moreover, in series [3] (listed as Zn), the “B1 whole blood sample pre-dialysis ± SEM” value worked out at 5610 ± 138 µg/L and the “B control ± SEM” value amounted to 5189 ± 124 µg/L.
